Assay results reported in patent US20150274719A1, “AMINO-SUBSTITUTED IMIDAZO[1,2-A]PYRIDINECARBOXAMIDES AND THEIR USE” (BAYER PHARMA AKTIENGESELLSCHAFT, priority 2012, published 2015).
Structures can show the parent of a compound that is named as a salt.

What follows are compounds tested against T1, recombinant guanylate cyclase reporter cell line (Rattus norvegicus, UniProt P19686+P20595) (assay: Action on recombinant guanylate cyclase reporter cell line). Settings: in some cases mean values from individual determinations.
T1 construct: expressed in transfected cells; host or cells: recombinant reporter cell line
T1 sequence (P19686 1-690): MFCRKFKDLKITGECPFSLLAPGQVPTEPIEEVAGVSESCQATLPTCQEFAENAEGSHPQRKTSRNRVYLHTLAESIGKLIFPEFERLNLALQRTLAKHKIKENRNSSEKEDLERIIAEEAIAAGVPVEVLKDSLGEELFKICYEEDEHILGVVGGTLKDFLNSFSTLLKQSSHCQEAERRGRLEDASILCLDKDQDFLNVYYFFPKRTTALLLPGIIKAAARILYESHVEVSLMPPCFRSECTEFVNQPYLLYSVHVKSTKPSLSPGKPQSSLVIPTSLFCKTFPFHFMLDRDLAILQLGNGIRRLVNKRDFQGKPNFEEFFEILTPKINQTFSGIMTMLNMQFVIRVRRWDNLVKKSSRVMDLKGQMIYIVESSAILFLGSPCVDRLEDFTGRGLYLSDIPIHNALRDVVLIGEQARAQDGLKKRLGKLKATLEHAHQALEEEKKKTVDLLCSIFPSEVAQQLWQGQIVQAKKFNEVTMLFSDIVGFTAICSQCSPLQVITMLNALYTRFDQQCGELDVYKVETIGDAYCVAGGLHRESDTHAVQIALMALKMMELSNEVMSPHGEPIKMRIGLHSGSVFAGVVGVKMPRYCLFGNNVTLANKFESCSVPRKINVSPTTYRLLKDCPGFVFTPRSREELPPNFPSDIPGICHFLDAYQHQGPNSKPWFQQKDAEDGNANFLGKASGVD
T1 sequence (P20595 1-619): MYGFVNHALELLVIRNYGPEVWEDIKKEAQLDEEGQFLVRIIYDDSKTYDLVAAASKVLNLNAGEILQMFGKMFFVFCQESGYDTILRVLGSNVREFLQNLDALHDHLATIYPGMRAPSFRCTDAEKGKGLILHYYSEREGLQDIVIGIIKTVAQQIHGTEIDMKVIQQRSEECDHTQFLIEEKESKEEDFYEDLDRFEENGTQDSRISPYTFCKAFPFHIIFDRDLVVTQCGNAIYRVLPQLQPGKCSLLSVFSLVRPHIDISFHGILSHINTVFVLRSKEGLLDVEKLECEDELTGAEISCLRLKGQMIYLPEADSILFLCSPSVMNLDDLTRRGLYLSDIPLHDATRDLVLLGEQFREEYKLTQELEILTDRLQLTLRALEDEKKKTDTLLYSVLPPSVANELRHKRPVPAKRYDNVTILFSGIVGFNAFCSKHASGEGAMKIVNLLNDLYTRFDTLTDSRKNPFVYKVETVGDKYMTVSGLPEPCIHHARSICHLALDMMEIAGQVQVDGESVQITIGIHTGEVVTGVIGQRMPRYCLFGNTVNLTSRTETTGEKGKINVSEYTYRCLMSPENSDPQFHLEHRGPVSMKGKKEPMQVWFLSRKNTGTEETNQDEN
Assay type: cell-based
Protocol: B-2. Action on Recombinant Guanylate Cyclase Reporter Cell Line
The cellular action of the compounds according to the invention is determined on a recombinant guanylate cyclase reporter cell line, as described in F. Wunder et al., Anal. Biochem. 339, 104-112 (2005).
Representative MEC values (MEC=minimal effective concentration) for the compounds according to the invention are shown in the following table (in some cases as mean values obtained from individual determinations): […]

Compared with CCC(C)(N)CNC(=O)c1c(C)nc2c(OCc3c(F)ccc(F)c3F)cc(C)cn12 (single isomer, unassigned; enantiomer a) [Example 300, ent-N-(2-amino-2-methylbutyl)-2,6-dimethyl-8-[(2,3,6-trifluorobenzyl)oxy]imidazo[1,2-a]pyridine-3-carboxamide (Enantiomer A) hydrochloride], CCCC(C)(N)CNC(=O)c1c(C)nc2c(OCc3c(F)ccc(F)c3F)cc(C)cn12 (racemic) [Example 293, rac-N-(2-amino-2-methylpentyl)-2,6-dimethyl-8-[(2,3,6-trifluorobenzyl)oxy]imidazo[1,2-a]pyridine-3-carboxamide] is 3.3-fold lower in “MEC (minimal effective concentration)” value: 0.10 µM for the first, 0.03 µM for the second.

First: COCC(N)CNC(=O)c1c(C)nc2c(OCc3c(F)cccc3F)cccn12 (single isomer, unassigned; enantiomer b) [Example 248, ent-N-(2-Amino-3-methoxypropyl)-8-[(2,6-difluorobenzyl)oxy]-2-methylimidazo[1,2-a]pyridine-3-carboxamide (Enantiomer B)]
Second: CCC(C)(N)CNC(=O)c1c(C)nc2c(OCc3c(F)cccc3F)cccn12 (racemic) [Example 254, rac-N-(2-Amino-2-methylbutyl)-8-[(2,6-difluorobenzyl)oxy]-2-methylimidazo[1,2-a]pyridine-3-carboxamide]
The “MEC (minimal effective concentration)” value of the first is 3.3-fold higher: 1.00 µM for the first, 0.30 µM for the second.

Compared with Cc1cc(OCc2c(F)cccc2F)c2nc(C)c(C(=O)NCC(C)(N)Cc3ccccn3)n2c1 (single isomer, unassigned; enantiomer a) [Example 298, ent-N-[2-amino-2-methyl-3-(pyridin-2-yl)propyl]-8-[(2,6-difluorobenzyl)oxy]-2,6-dimethyl-imidazo[1,2-a]pyridine-3-carboxamide (Enantiomer A)], Cc1cc(OCc2c(F)cccc2F)c2nc(C)c(C(=O)NCC(C)(C)NCC(F)(F)F)n2c1 [Example 94, 8-[(2,6-Difluorobenzyl)oxy]-2,6-dimethyl-N-{2-methyl-2-[(2,2,2-trifluoroethyl)amino]propyl}-imidazo[1,2-a]pyridine-3-carboxamide] is 3-fold higher in “MEC (minimal effective concentration)” value: 0.10 µM for the first, 0.30 µM for the second.

Going from CSCCC(CN)NC(=O)c1c(C)nc2c(OCc3c(F)cccc3F)cc(C)cn12 (racemic) [Example 391, rac-N-[1-amino-4-(methylsulfanyl)butan-2-yl]-8-[(2,6-difluorobenzyl)oxy]-2,6-dimethylimidazo[1,2-a]pyridine-3-carboxamide] to Cc1cc(OCc2c(F)cccc2F)c2nc(C)c(C(=O)NC3(C)CCC3(C)N)n2c1 (single isomer, unassigned; enantiomer a) [Example 336, ent-N-[(2-amino-1,2-dimethylcyclobutyl]-8-[(2,6-difluorobenzyl)oxy]-2,6-dimethylimidazo[1,2-a]pyridine-3-carboxamide (Enantiomer A)], the “MEC (minimal effective concentration)” value rises from 0.10 µM to 0.30 µM (3-fold).

Going from Cc1cc(OCc2c(F)cccc2F)c2nc(C)c(C(=O)NCC3CSCCN3)n2c1 (racemic) [Example 366, rac-8-[(2,6-difluorobenzyl)oxy]-2,6-dimethyl-N-(thiomorpholin-3-ylmethyl)imidazo[1,2-a]pyridine-3-carboxamide] to COc1ccc(F)c(COc2cc(C)cn3c(C(=O)NCC(C)(N)CF)c(C)nc23)c1F (stereo not drawn) [Example 361, ent-N-(2-amino-3-fluoro-2-methylpropyl)-8-[(2,6-difluoro-3-methoxybenzyl)oxy]-2,6-dimethylimidazo[1,2-a]pyridine-3-carboxamide], the “MEC (minimal effective concentration)” value rises from 0.10 µM to 1.00 µM (10-fold).

For Cc1nc2c(OCc3c(F)cccc3F)cccn2c1C(=O)NC1CC2CCCC(C1)N2 (centres unmarked) [Example 27, N-(9-azabicyclo[3.3.1]non-3-yl)-8-[(2,6-difluorobenzyl)oxy]-2-methylimidazo[1,2-a]-pyridine-3-carboxamide], the “MEC (minimal effective concentration)” value was 1.00 µM.
